Literature values in US20090130675A1, “Genes Involved in the Biosynthesis of Thiocoraline and Heterologous Production of Same” (PHARMA MAR, S.A., priority 2005, published 2009).

Key:
Gram-positive bacteria = conditions: against Gram-positive bacteria
[1] = system: cell lines of different types of solid tumors, such as melanoma, breast, non-microcytic lung and colon cancer; conditions: in vitro
[2] = system: human carcinoma xenografts; conditions: in vivo, human carcinoma xenografts (Faircloth et al. 1997)

## Thiocoraline
Gram-positive bacteria
  antibacterial activity: shows antibacterial activity
[1]
  capacity to inhibit the growth of cell lines: inhibit the growth of cell lines
[2]
  antitumor activity: marked antitumor activity
